Measurements reported in PMC12797170, “Potent Competitive Inhibitors of Ecto-5′-nucleotidase (CD73) based on 6‑(Het)aryl-7-deazapurine Ribonucleoside 5′‑O‑Bisphosphonates” (ACS Pharmacology & Translational Science, 2025).
Converted amounts (≈) assume the structure as drawn.

Assays:
[1] = target: T1, recombinant human CD73 (hCD73) (Homo sapiens, UniProt P21589); experiment: CD73 activity assay on recombinant human CD73; type: biochemical; settings: ΔGexp = RT ln Ki
T1 sequence (P21589 27-574): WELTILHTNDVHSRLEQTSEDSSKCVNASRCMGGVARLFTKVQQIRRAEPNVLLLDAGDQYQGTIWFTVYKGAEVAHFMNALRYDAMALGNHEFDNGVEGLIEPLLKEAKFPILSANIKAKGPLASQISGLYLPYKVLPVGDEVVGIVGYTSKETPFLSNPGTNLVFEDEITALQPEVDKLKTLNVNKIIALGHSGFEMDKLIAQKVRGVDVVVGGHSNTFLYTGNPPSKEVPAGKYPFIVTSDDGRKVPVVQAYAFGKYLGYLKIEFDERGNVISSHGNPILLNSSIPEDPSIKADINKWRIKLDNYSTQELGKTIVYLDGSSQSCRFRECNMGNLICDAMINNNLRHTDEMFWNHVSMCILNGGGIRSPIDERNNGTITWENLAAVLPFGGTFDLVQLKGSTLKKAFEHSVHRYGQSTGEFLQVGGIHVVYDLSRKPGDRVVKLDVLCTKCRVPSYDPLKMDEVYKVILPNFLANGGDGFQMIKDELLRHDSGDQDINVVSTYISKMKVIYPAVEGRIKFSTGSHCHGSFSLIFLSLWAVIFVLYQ

[2] = In vivo pharmacokinetic study, intravenous; set-up: species or system male CD-1 mice; settings: plasma, 1 mg/kg, intravenous; for half-life: male, CD-1, mouse, iv, footnote: t1/2 stability in plasma, text: half-life in mouse PK; for clearance: mouse, male CD-1 mice, single dose, read-out: Cl (obs), observed clearance
Method: The pharmacokinetic study was performed by Bienta (Enamine Biology Services) using male CD-1 mice (3 animals, 9 weeks old, body weight ranging from 29.2 to 33.7 g) following intravenous administration. Levels of the test compound were determined by LC-MS/MS in blood plasma over time (seven sampling time points: 5, 15, 30, 60, 120, 240, and 480 min) after a single dose.
Animal treatment and samples preparation were conducted by the Animal Laboratory personnel at Enamine/Bienta.

[3] = Plasma protein binding, equilibrium dialysis, human plasma; type: in vitro ADME; settings: undiluted plasma, human plasma protein binding, read-out: PPB (hu) (converted)
[4] = Plasma protein binding, mouse plasma; type: in vitro ADME; settings: mouse, plasma
[5] = Kinetic solubility in PBS; type: physicochemical; settings: phosphate-buffered saline, pH 7.4, aqueous buffer, kinetic from dmso stock
In short: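 Echo-MS quantitation with calibration from 0.05 to 4 μM, after 1:99 dilution of filtrate into 50% acetonitrile. Filtrate came from a 100 μM PBS (pH 7.4) solution equilibrated 2 h at room temperature with shaking, in duplicate.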

[6] = Microsomal stability assay, human liver microsomes; type: in vitro ADME; settings: for Mics (hu) comp remaining 60 min: 10 μM; for microsomal CLint at 10 µM: pooled liver microsomes, pH 7.4, read-out: Mics (hu) CLint
[7] = Microsomal stability assay, mouse liver microsomes; type: in vitro ADME; settings: for Mics (m) comp remaining 60 min: 10 μM; for microsomal CLint at 10 µM: pooled liver microsomes, pH 7.4, read-out: Mics (m) CLint
CCRF-CEM = experiment: In vitro cytotoxic activity; type: cell-based; settings: Homo sapiens
Method: (§1) All the compounds were also tested for their in vitro cytotoxic activity on a small panel of four cancer cell lines (CCRF-CEM, HepG2, HeLa S3, HL-60) and nonmalignant human dermal fibroblasts (NHDF).

HL-60 = experiment: In vitro cytotoxic activity; type: cell-based; settings: Homo sapiens
Method: as §1

HeLa S3 = experiment: In vitro cytotoxic activity; type: cell-based; settings: Homo sapiens
Method: as §1

HepG2 = experiment: In vitro cytotoxic activity; type: cell-based; settings: Homo sapiens
Method: as §1

[8] = system: nonmalignant human dermal fibroblasts (NHDF); experiment: In vitro cytotoxic activity; type: cell-based
Method: as §1

in vitro [9] = settings: human, plasma
in vitro [10] = settings: mouse, plasma
[11] = Tables 2 and 4, mouse plasma, read-out: fup, fraction unbound in mouse plasma
[12] = mouse plasma protein binding, read-out: PPB (m) (converted)

dG_exp, experimental binding free energy [1]	half-life [2] [h]	clearance [2] [mL/min/kg]	fraction unbound at 4 h, 100 µM [3]	fraction unbound at 4 h, 100 µM [4, 11]	fraction unbound at 4 h, 100 µM [4, 12]	solubility at 2 h [5] [µM]	Mics (hu) comp remaining 60 min [6] [%]	microsomal CLint at 10 µM [6] [µL/min/mg]	Mics (m) comp remaining 60 min [7] [%]	microsomal CLint at 10 µM [7] [µL/min/mg]	half-life at 10 µM (in vitro [9]) [h]	half-life at 10 µM (in vitro [10]) [h]	Structure (SMILES)	IC50 (CCRF-CEM) [µM]	IC50 (HL-60) [µM]	IC50 (HeLa S3) [µM]	IC50 (HepG2) [µM]	IC50 [8] [µM]
–15.2 kcal/mol	0.105	8.3	0.098	0.92	0.818	> 100	98	2	106	< 1	> 2	> 2	O=P(O)(O)CP(=O)(O)OC[C@H]1O[C@@H](n2ccc3c(-c4ccco4)nc(Cl)nc32)[C@H](O)[C@@H]1O [7B.1, [(5-{[2-Chloro-4-(furan-2-yl)-7H-pyrrolo[2,3-d]pyrimidin-7-yl]-β-D-ribofuranosyl}oxy)phosphonomethyl]phosphonic Acid]	8.8	5.6	> 10	> 10	> 10
–15.9 kcal/mol	0.122	8.3	0.033	0.11	0.112	84 (≈ 47.9 µg/mL)	111	< 1	106	< 1	> 2	> 2	O=P(O)(O)CP(=O)(O)OC[C@H]1O[C@@H](n2ccc3c(-c4ccc5ccccc5c4)nc(Cl)nc32)[C@H](O)[C@@H]1O [7B.7]	> 10	> 10	> 10	> 10	> 10
–16.0 kcal/mol	0.142	8.8	0.033	0.19	0.187	87 (≈ 48.7 µg/mL)	98	1	109	< 1	> 2	> 2	O=P(O)(O)CP(=O)(O)OC[C@H]1O[C@@H](n2ccc3c(-c4cc5ccccc5o4)nc(Cl)nc32)[C@H](O)[C@@H]1O [7B.8]	> 10	6	> 10	> 10	> 10
–15.7 kcal/mol	0.617	12	0.012	0.21	0.201	> 100	111	< 1	72	12	> 2	> 2	O=P(O)(O)CP(=O)(O)OC[C@H]1O[C@@H](n2ccc3c(-c4cc5ccccc5[nH]4)nc(Cl)nc32)[C@H](O)[C@@H]1O [7B.24]	> 10	> 10	> 10	> 10	> 10
–15.4 kcal/mol	0.283	5.9	≤ 0.01	0.08	0.079	> 100	108	< 2	109	< 2	> 2	> 2	O=P(O)(O)CP(=O)(O)OC[C@H]1O[C@@H](n2ccc3c(-c4ccc5cc(F)ccc5c4)nc(Cl)nc32)[C@H](O)[C@@H]1O [7B.25]	> 10	> 10	> 10	> 10	> 10
–15.7 kcal/mol	1.67	1.1	≤ 0.01	0.02	0.016	71 (≈ 47.3 µg/mL)	117	< 2	113	< 2	> 2	> 2	O=P(O)(O)CP(=O)(O)OC[C@H]1O[C@@H](n2ccc3c(-c4cc(Br)c5ccccc5c4F)nc(Cl)nc32)[C@H](O)[C@@H]1O [7B.26]	> 10	> 10	> 10	> 10	> 10
–15.3 kcal/mol	2.43	6.7	≤ 0.01	0.04	0.036	89 (≈ 53.8 µg/mL)	148	< 2	140	< 2	> 2	> 2	O=P(O)(O)CP(=O)(O)OC[C@H]1O[C@@H](n2ccc3c(-c4ccc5cc(Cl)ccc5c4)nc(Cl)nc32)[C@H](O)[C@@H]1O [7B.27]	> 10	> 10	> 10	> 10	> 10
–14.6 kcal/mol	0.138	7.2	≤ 0.01	0.23	0.234	85 (≈ 53.4 µg/mL)	132	< 2	112	< 2	> 2	> 2	COC(=O)c1ccc2cc(-c3nc(Cl)nc4c3ccn4[C@@H]3O[C@H](COP(=O)(O)CP(=O)(O)O)[C@@H](O)[C@H]3O)ccc2c1 [7B.29]	> 10	> 10	> 10	> 10	> 10
–15.8 kcal/mol	0.113	11	0.084	0.2	0.198	> 100	104	< 2	111	< 2	> 2	> 2	O=P(O)(O)CP(=O)(O)OC[C@H]1O[C@@H](n2ccc3c(-c4ccc5cc(O)ccc5c4)nc(Cl)nc32)[C@H](O)[C@@H]1O [7B.32]	> 10	> 10	> 10	> 10	> 10
–13.9 kcal/mol	2.78	2.3	0.067	0.56	0.564	> 100	92	3	102	< 1	> 2	> 2	Nc1nc(-c2cccc3ccccc23)c2ccn([C@@H]3O[C@H](COP(=O)(O)CP(=O)(O)O)[C@@H](O)[C@H]3O)c2n1 [11C.6]	> 10	> 10	> 10	> 10	> 10
